Key:
[1] = test system: JAK-STAT signalling in HeLa cells; assay: JAK-STAT signalling assay (pSTAT1(2)-luciferase reporter, OSM-triggered HeLa cells); type: cell-based; conditions: human OSM 33 ng/mL
Description: HeLa cells were maintained in Dulbecco's Modified Eagle's Medium (DMEM) containing 10% heat inactivated fetal calf serum, 100 U/mL penicillin and 100 μg/mL streptomycin. HeLa cells were used at 70% confluence for transfection. 20,000 cells in 87 μL cell culture medium were transiently transfected with 40 ng pSTAT1(2)-luciferase reporter (Panomics), 8 ng of LacZ reporter as internal control reporter and 52 ng of pBSK using 0.32 μL Jet-PEI (Polyplus) as transfection reagent per well in 96-well plate format. After overnight incubation at 37° C., 5% CO2, transfection medium was removed. 81 μL of DMEM+1.5% heat inactivated fetal calf serum was added. 9 μL compound at 10× concentration was added for 60 min and then 10 μL of human OSM (Peprotech) at 33 ng/mL final concentration.
All compounds were tested in duplicate starting from 20 μM followed by a ⅓ serial dilution, 8 doses in total (20 μM-6.6 μM-2.2 μM-740 nM-250 nM-82 nM-27 nM-9 nM) in a final concentration of 0.2% DMSO.
After overnight incubation at 37° C., 5% CO2 cells were lysed by adding 100 μL lysis buffer/well (PBS, 0.9 mM CaCl2, 0.5 mM MgCl2, 10% Trehalose, 0.05% Tergitol NP9, 0.3% BSA).
40 μL of cell lysate was used to read β-galactosidase activity by adding 180 μL β-Gal solution (30 μl ONPG 4 mg/mL+150 μL β-Galactosidase buffer (0.06 M Na2HPO4, 0.04 M NaH2PO4, 1 mM MgCl2)) for 20 min. The reaction was stopped by addition of 50 μL Na2CO3 1 M. Absorbance was read at 405 nm.
Luciferase activity was measured using 40 μL cell lysate plus 40 μL of Steadylite® as described by the manufacturer (Perkin Elmer), on the Envision (Perkin Elmer).
Omitting OSM was used as a positive control (100% inhibition). As negative control 0.5% DMSO (0% inhibition) was used. The positive and negative controls were used to calculate z′ and ‘percent inhibition’ (PIN) values. Percentage inhibition=((fluorescence determined in the presence of vehicle−fluorescence determined for sample with test compound present)divided by(fluorescence determined in the presence of vehicle−fluorescence determined for sample without trigger))*100.
PIN values were plotted for compounds tested in dose-response and EC50 values were derived.

Recombinant human JAK1 = target: T1, Recombinant human JAK1 (Homo sapiens, UniProt P23458); assay: JAK1 Ulight-JAK1 peptide assay; type: biochemical; conditions: Ulight-JAK1(tyr1023) peptide, 7 μM ATP
T1 construct: catalytic domain (amino acids 866-1154; catalog number PV4774); purchased Invitrogen PV4774
T1 sequence (P23458 866-1154): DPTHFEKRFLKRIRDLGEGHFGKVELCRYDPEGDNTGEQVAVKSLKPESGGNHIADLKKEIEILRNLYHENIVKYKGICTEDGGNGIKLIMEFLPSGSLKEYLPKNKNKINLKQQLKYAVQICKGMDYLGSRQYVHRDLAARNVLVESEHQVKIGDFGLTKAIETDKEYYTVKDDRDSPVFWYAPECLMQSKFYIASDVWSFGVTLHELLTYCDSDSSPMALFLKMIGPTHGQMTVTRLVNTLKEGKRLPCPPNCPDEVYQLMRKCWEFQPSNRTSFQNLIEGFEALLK
Procedure, shortened: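 TR-FRET assay: recombinant human JAK1 catalytic domain (aa 866-1154, 1 ng) phosphorylates 20 nM Ulight-JAK1(tyr1023) peptide at 7 μM ATP in MOPS pH 6.8 buffer, 1% DMSO, for 60 min at room temperature. Eu-anti-phosphotyrosine detection follows EDTA stop. IC50 comes from 10-point ⅕ dilutions from 20 μM, normalized to 10 μM staurosporine.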

[2] = target: T2, Recombinant human JAK3 catalytic domain (Homo sapiens, UniProt P52333); assay: JAK3 inhibition assay; type: biochemical; conditions: polyGT substrate, 33P-gamma-ATP filter assay, 1 μM ATP
T2 construct: catalytic domain (amino acids 795-1124; catalog number 08-046); purchased Carna Biosciences 08-046
T2 sequence (P52333 795-1124): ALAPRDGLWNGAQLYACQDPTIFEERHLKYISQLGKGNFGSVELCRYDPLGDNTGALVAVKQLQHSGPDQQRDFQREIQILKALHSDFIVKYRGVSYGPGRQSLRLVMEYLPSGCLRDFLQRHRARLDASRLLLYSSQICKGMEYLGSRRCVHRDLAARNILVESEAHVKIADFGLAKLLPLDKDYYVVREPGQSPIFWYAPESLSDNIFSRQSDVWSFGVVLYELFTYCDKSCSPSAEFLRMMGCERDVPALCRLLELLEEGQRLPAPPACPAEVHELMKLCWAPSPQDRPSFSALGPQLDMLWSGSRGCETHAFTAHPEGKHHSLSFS
Procedure, shortened: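 Kinase domain aa 795-1124 with polyGT substrate, 1 μM ATP plus ^33P-γ-ATP, pH 7.5 Tris buffer, 1% DMSO; 45 min at 30° C. Filter-bound radioactivity counted, inhibition normalised to vehicle and 10 μM staurosporine. IC50 from 10-point 1/5 dilutions, top concentration usually 20 μM.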

Row | SMILES | IC50 [1] [nM] | IC50 (Recombinant human JAK1) [nM] | IC50 [2] [nM]
1 | CC(=O)Nc1cc2c(-c3ccc(CN4CCC(S(C)(=O)=O)CC4)c(F)c3)cccn2n1 [Compound 29, N-(4-(3-fluoro-4((4-(methylsulfonyl)piperidin-1-yl)methyl)phenyl)pyrazolo[1,5-a]pyridin-2-yl)acetamide] | > 1000 | 0.01 to 100 | 101 to 500
2 | CC(=O)Nc1cc2c(-c3ccc(CC(=O)N4CC(F)(F)C4)cc3)cccn2n1 [Compound 34, N-(4-(4-(2-(3,3-difluoroazetidin-1-yl)-2-oxoethyl)phenyl)pyrazolo[1,5-a]pyridin-2-yl)acetamide] | 501 to 1000 | 0.01 to 100 | 101 to 500
3 | C[C@@H]1CN(S(C)(=O)=O)CCN1Cc1ccc(-c2cccn3nc(NC(=O)C4CC4)cc23)cc1 [Compound 44, (R)-N-(4-(4-((2-methyl-4-(methylsulfonyl)piperazin-1-yl)methyl)phenyl)pyrazolo[1,5-a]pyridin-2-yl)cyclopropanecarboxamide] | 101 to 500 | 0.01 to 100 | 0.01 to 100
4 | CC(=O)Nc1cc2c(-c3ccc(C(C)N4CCN(S(C)(=O)=O)CC4)cc3)cccn2n1 (stereo not drawn) [Compound 45, N-(4-(4-(1-(4-(methylsulfonyl)piperazin-1-yl)ethyl)phenyl)pyrazolo[1,5-a]pyridin-2-yl)acetamide] | 501 to 1000 | 0.01 to 100 | 101 to 500
5 | C[C@H](c1ccc(-c2cccn3nc(NC(=O)C4CC4)cc23)cc1)N1CCN(S(C)(=O)=O)CC1 [Compound 46, (R)-N-(4-(4-(1-(4-(methylsulfonyl)piperazin-1-yl)ethyl)phenyl)pyrazolo[1,5-a]pyridin-2-yl)cyclopropanecarboxamide] | 101 to 500 | 0.01 to 100 | 0.01 to 100
6 | C[C@@H](c1ccc(-c2cccn3nc(NC(=O)C4CC4)cc23)cc1)N1CCN(S(C)(=O)=O)CC1 [Compound 47, (S)-N-(4-(4-(1-(4-(methylsulfonyl)piperazin-1-yl)ethyl)phenyl)pyrazolo[1,5-a]pyridin-2-yl)cyclopropanecarboxamide] | 101 to 500 | 0.01 to 100 | 0.01 to 100
7 | O=C(Nc1cc2c(-c3ccc(CN4CCCCC45COC5)cc3)cccn2n1)C1CC1 [Compound 48, N-(4-(4-(2-oxa-5-azaspiro[3.5]nonan-5-ylmethyl)phenyl)pyrazolo[1,5-a]pyridin-2-yl)cyclopropanecarboxamide] | 501 to 1000 | 0.01 to 100 | 0.01 to 100
8 | CS(=O)(=O)N1CC[C@@H](Oc2ccc(-c3cccn4nc(NC(=O)C5CC5)cc34)cc2)C1 [Compound 49, (R)-N-(4-(4-(1-(methylsulfonyl)pyrrolidin-3-yloxy)phenyl)pyrazolo[1,5-a]pyridin-2-yl)cyclopropanecarboxamide] | 101 to 500 | 0.01 to 100 | 0.01 to 100

From US8975406B2, “Compound useful for the treatment of degenerative and inflammatory diseases” (Galapagos N.V., priority 2011, dated 2015)
